{"source": "patent US20240002846A1", "about": "“COMPOSITIONS AND METHODS FOR THE DIAGNOSIS AND TREATMENT OF ITCH” (Duke University, priority 2020, published 2024)", "key": {"mice": {"system": "mice", "assay": "Scratching behavior after i.d. injection into dorsal neck skin", "format": "in vivo, mouse", "settings": "i.d. into dorsal neck, LPA 18:1 500 μg, LPC 50-500 μg, LPC species at the same dose", "procedure": "Behavioral assessment. Mice were shaved at the dorsal neck 1 d before experiments. Mice were allowed to acclimate to a Plexiglas chamber for at least 30 min before testing and received intradermal (i.d.) injection of 50 μL of LPA 18:1, LPC, LPC 14:0, LPC 16:0, LPC 18:0, LPC 18:1, miR-146a mimic, miR-146a scramble, ATP or vehicles through a 30-gauge needle (Becton Dickinson, Franklin Lakes, NJ) into the neck skin. After injections, mice were immediately placed back to the chamber, and the scratching behavior was recorded by a Panasonic video camera for 30 min. Hind limb scratching behavior directed toward the injected area at the nape of neck was observed. One scratch is defined as a lifting of the hind limb toward the injection site and then a replacing of the limb back to the floor, regardless of how many scratching strokes take place between those two movements. Behavioral analysis was conducted by observers blinded to genotype."}, "rTRPV4": {"target": "rTRPV4 (Rattus norvegicus, UniProt Q9ERZ8)", "sequence (Q9ERZ8 whole entry)": "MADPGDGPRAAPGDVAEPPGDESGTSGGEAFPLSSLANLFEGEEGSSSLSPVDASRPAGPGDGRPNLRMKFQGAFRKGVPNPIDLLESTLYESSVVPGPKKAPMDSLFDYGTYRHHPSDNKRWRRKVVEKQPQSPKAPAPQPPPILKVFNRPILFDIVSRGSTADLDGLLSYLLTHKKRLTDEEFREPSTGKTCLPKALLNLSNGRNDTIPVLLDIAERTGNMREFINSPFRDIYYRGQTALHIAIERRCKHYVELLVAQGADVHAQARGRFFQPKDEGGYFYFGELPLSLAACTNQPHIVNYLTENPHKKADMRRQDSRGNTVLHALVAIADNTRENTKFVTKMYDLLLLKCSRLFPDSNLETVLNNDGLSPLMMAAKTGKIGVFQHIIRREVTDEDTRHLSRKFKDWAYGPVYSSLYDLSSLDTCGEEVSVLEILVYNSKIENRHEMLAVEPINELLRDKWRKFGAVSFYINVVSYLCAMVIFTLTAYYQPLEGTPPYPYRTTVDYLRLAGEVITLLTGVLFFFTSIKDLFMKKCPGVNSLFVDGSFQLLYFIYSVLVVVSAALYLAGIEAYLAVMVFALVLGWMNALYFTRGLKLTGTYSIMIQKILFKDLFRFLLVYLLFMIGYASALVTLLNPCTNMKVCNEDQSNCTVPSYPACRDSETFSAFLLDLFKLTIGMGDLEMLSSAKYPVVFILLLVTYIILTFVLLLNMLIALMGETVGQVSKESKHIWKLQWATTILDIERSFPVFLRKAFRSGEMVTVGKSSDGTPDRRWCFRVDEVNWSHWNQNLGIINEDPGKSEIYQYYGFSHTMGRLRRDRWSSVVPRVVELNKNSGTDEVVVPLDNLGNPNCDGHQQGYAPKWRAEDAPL", "assay": "In vitro interaction (overlay) assay LPC-TRPV4", "format": "binding", "set-up": "made in house; host or cells: HEK293 cells, surface proteins isolated with Pierce Cell Surface Isolation kit", "settings": "200 pmol per spot", "procedure": "In vitro interaction assays of LPC-TRPV4. Surface proteins were obtained from HEK293 cells transiently expressing rTRPV4-EGFP channels using the Pierce Cell Surface Isolation kit (Pierce Biotechnology, Rockford, IL) following the manufacturer's instructions. Overlay assays were performed as previously described (Morales-Lazaro et al. Nat. Commun. 2016, 7, 13092). In brief, LPC 18:1 was spotted (200 pmol per spot) onto a nitrocellulose membrane (GE Healthcare, Pittsburgh, PA) and then blocked with 1% fatty acid-free BSA (Calbiochem) and 6% fat-free dried milk in PBS. Membranes were then incubated with the surface protein solutions and exposed to anti-GFP antibody (Sigma, St. Louis, MO) diluted 1:1000 in 3% fat-free dried milk in PBST (with 0.1% of Tween). Membranes were incubated with horseradish peroxidase-conjugated secondary anti-rabbit antibody (Cell Signaling Technology) diluted 1:7500 in 6% fat-free dried milk in PBST. The binding of rTRPV4-EGFP and TRPV4-R746D-EGFP to the lipid-containing spots was visualized by chemiluminescence by exposing the blot for 15 min (Amersham Bioscience, Piscataway, NJ). Semi-quantitative densitometric analysis was done using ImageJ (NIH) and expressed as relative protein levels of TRPV4 bound to each spot."}, "[1]": {"system": "vesicular release from mKC", "assay": "Vesicular release from cultured mouse keratinocytes (AChE activity)", "format": "cell-based", "settings": "10 μM", "procedure": "Vesicular release from cultured keratinocytes was quantified by detecting acetylcholinesterase (AChE) activity in the extracellular release fluid. (Gupta et al. Am. J. Physiol. Heart Circ. Physiol. 2007, 292, H3052-3056; Malik et al. Methods Mol. Biol. 2016, 1448, 237-248). CBQCA Protein Quantitation Kit (Molecular Probes, Eugene, OR) was used to assess the total protein amounts of each sample. Quantitation was carried out according to kit instructions (Fluorocet, Systems Biosciences, Palo Alto, CA). Briefly, vesicles were lysed to release esterase enzyme whose activity is measured using a florescence dye, excitation at 544 nm and emission at 590 nm. Fluostar Optima (BMG Labtech, Cary, NC) microplate reader was used to measure esterase activity. 500 ng protein equivalent of input was used per well. To determine the contribution of Rab5a and Rab27a to LPC-induced miR-146a release, cells were pre-treated with the Rab5a (5′-GUAGAAUCAA GUUUCUAAUUCUGAA-3′ SEQ ID NO: 9, 5′-[…]-3′ SEQ ID NO: 10) or Rab27a (5′-AGCUAAAA CUGAGAGCUUCAAACAG-3′ SEQ ID NO: 11, 5′-[…]-3′ SEQ ID NO: 12) siRNA (IDT, Coralville, IA) for 72 h before stimulation. Control cells were treated with scramble siRNA."}, "pERK expression": {"system": "pERK expression", "assay": "pERK Western blot in cultured human keratinocytes", "format": "cell-based", "settings": "inhibitor 10 μM", "procedure": "Primary human keratinocytes were cultured as previously described (Chen et al. J. Biol. Chem. 2016, 291, 10252-10262). In brief, surgically discarded foreskin samples, obtained from Duke Children's Hospital in accordance to institutionally approved IRB protocol, were incubated with Dispase (Gibco, Gaithersburg, MD, 4 U/mL) for 12-16 h at 4° C. followed by 0.05% trypsin (Gibco, Gaithersburg, MD) for 10-20 min at 37° C. Cells were maintained in keratinocyte serum-free media (Invitrogen, Waltham, MA) with 5% CO2 at 37° C. and used at passage 2-3.\nWestern Blot. Routine procedures were followed (Chen et al. J. Biol. Chem. 2016, 291, 10252-10262, Chen et al. Pain 2014, 155, 2662-2672). Briefly, cultured keratinocytes and dissected dorsal neck skin (0.5×0.5 cm, the area that received the treatment) were protein-extracted in radioimmunoprecipitation assay (RIPA, Sigma, St. Louis, MO) buffer and electroblotted to polyvinylidene fluoride (PVDF) membranes after gel separation of proteins in a 4-15% polyacrylamide gel (Bio-Rad, Hercules, CA). […] Immunoblot band intensity was quantitated using the software Image J and ERK served as a control for pERK expression."}}, "note": "“Also recorded” adds a separate entry of the source."}
{"compound": "LPC 18:1", "values": [{"measurement": "scratching behavior (itch) induced by i.d. injection of lipid", "setting": "mice", "result": "caused robust itch; also recorded: most potent"}, {"measurement": "scratching behavior (itch) induced by i.d. injection of lipid", "setting": "mice; listed as LPC (18:1)", "result": "the most potent"}, {"measurement": "binding of LPC 18:1 to rTRPV4", "setting": "rTRPV4", "result": "demonstrated binding"}]}
{"compound": "N#CC(=C(/N)Sc1ccccc1N)/C(C#N)=C(\\N)Sc1ccccc1N", "note": "[U0126]", "values": [{"measurement": "effect of U0126 on LPC-induced vesicular release", "setting": "[1]", "result": "completely eliminated"}]}
{"compound": "Cc1c(C(=O)Nc2cccc(C(F)(F)F)c2)cc(-c2ccccc2)n1CCCN1CCOCC1", "note": "[HC067047]", "values": [{"measurement": "effect on LPC-increased pERK expression", "setting": "pERK expression", "result": "eliminated the increase; also recorded: abolished"}]}
